Measured values reported in the supplement of paper PMC10307832.

Compound: CC1=C(N=C(N=C1N)[C@H](CC(=O)N)NC[C@@H](C(=O)N)N)C(=O)N[C@@H]([C@H](C2=CN=CN2)OC3C(C(C(C(O3)CO)O)O)OC4C(C(C(C(O4)CO)O)OC(=O)N)O)C(=O)N[C@H](C)[C@H]([C@H](C)C(=O)N[C@@H]([C@@H](C)O)C(=O)NCCC5=NC(=CS5)C6=NC(=CS6)C(=O)NCCC[S+](C)C)O [Bleomycin] + N=C(N)NC(=N)NCCc1ccccc1 [Phenformin] (partner 250 µM)
Assay: relative viability (nuclei count vs DMSO), 5 days (fraction); higher = more cells survive
Conditions: first compound 0.01 µM; main component drawn
In short: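 Lung cancer cell lines, seeded in 1536-well plates, were treated the following day by pin tool with a single drug or with five library-drug doses (not always all listed) in √10 steps on top of a fixed anchor-drug dose. Cells were fixed and nuclei stained in one step after 5 days, and nuclei were counted. Relative viability is the nuclei count for treated wells divided by that for vehicle wells, reported as medians of duplicate plates.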

Cell Line	relative viability
NCI-H520	0.315
NCI-H2405	0.333
SW 1573	0.276
NCI-H1395	0.404
201T	0.447
NCI-H1915	0.301
HCC-827	0.351
LXF-289	0.471
NCI-H2347	0.374
NCI-H650	0.342
CAL-12T	0.474
NCI-H1651	0.314
EPLC-272H	0.247
NCI-H23	0.518
NCI-H1792	0.316
NCI-H1355	0.432
NCI-H322M	0.655
NCI-H1437	0.248
NCI-H1755	0.562
NCI-H2023	0.34
HCC-15	0.418
NCI-H1793	0.389
PC-3 [JPC-3]	0.476
EKVX	0.234
LC-2-ad	0.493
NCI-H1944	0.145
NCI-H1975	0.322
SK-LU-1	0.46
ABC-1	0.241

Same assay, conditions: first compound 0.03162 µM; main component drawn

Cell Line	relative viability
NCI-H520	0.577
NCI-H2405	0.399
SW 1573	0.316
NCI-H1395	0.411
201T	0.436
NCI-H1915	0.301
HCC-827	0.311
LXF-289	0.477
NCI-H2347	0.437
NCI-H650	0.399
CAL-12T	0.466
NCI-H1651	0.298
EPLC-272H	0.286
NCI-H23	0.586
NCI-H1792	0.309
NCI-H1355	0.487
NCI-H322M	0.74
NCI-H1437	0.283
NCI-H1755	0.589
NCI-H2023	0.326
HCC-15	0.457
NCI-H1793	0.417
PC-3 [JPC-3]	0.511
EKVX	0.255
LC-2-ad	0.536
NCI-H1944	0.144
NCI-H1975	0.316
SK-LU-1	0.696
ABC-1	0.234

Same assay, conditions: first compound 0.1 µM; main component drawn

Cell Line	relative viability
NCI-H520	0.4
NCI-H2405	0.383
SW 1573	0.272
NCI-H1395	0.456
201T	0.47
NCI-H1915	0.254
HCC-827	0.361
LXF-289	0.446
NCI-H2347	0.222
NCI-H650	0.384
CAL-12T	0.297
NCI-H1651	0.303
EPLC-272H	0.228
NCI-H23	0.357
NCI-H1792	0.195
NCI-H1355	0.429
NCI-H322M	0.72
NCI-H1437	0.287
NCI-H1755	0.593
NCI-H2023	0.312
HCC-15	0.387
NCI-H1793	0.349
PC-3 [JPC-3]	0.475
EKVX	0.196
LC-2-ad	0.385
NCI-H1944	0.141
NCI-H1975	0.253
SK-LU-1	0.5
ABC-1	0.258

Same assay, conditions: first compound 0.3162 µM; main component drawn

Cell Line	relative viability
NCI-H520	0.279
NCI-H2405	0.263
SW 1573	0.205
NCI-H1395	0.325
201T	0.361
NCI-H1915	0.15
HCC-827	0.304
LXF-289	0.174
NCI-H2347	0.255
NCI-H650	0.327
CAL-12T	0.175
NCI-H1651	0.17
EPLC-272H	0.173
NCI-H23	0.207
NCI-H1792	0.197
NCI-H1355	0.27
NCI-H322M	0.377
NCI-H1437	0.229
NCI-H1755	0.507
NCI-H2023	0.157
HCC-15	0.16
NCI-H1793	0.211
PC-3 [JPC-3]	0.364
EKVX	0.2
LC-2-ad	0.283
NCI-H1944	0.116
NCI-H1975	0.162
SK-LU-1	0.31
ABC-1	0.239

Same assay, conditions: first compound 1 µM; main component drawn

Cell Line	relative viability
NCI-H520	0.35
NCI-H2405	0.262
SW 1573	0.14
NCI-H1395	0.351
201T	0.364
NCI-H1915	0.14
HCC-827	0.172
LXF-289	0.0704
NCI-H2347	0.286
NCI-H650	0.202
CAL-12T	0.163
NCI-H1651	0.189
EPLC-272H	0.116
NCI-H23	0.17
NCI-H1792	0.164
NCI-H1355	0.194
NCI-H322M	0.353
NCI-H1437	0.212
NCI-H1755	0.39
NCI-H2023	0.101
HCC-15	0.129
NCI-H1793	0.131
PC-3 [JPC-3]	0.336
EKVX	0.157
LC-2-ad	0.238
NCI-H1944	0.102
NCI-H1975	0.123
SK-LU-1	0.209
